{
  "source": "patent US5260280A",
  "about": "(priority 1989, dated 1993)",
  "key": {"[1]": {"molecular_target": "enterotoxin CFA/II(LT-II) (Escherichia coli, UniProt P0CK94)", "sequence (P0CK94 whole entry, looked up)": "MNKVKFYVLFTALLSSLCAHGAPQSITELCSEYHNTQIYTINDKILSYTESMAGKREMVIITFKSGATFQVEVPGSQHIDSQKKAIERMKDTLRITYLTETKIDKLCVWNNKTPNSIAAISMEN", "format": "cell-based, E. coli"}, "[2]": {"tested_on": "cholera toxin", "format": "in vivo, Vibrio cholerae", "settings": "Balb/c mice, CT 0.25 mg oral on day 8"}, "[3]": {"tested_on": "enterotoxin LT-I", "parameters": "species or system E. coli", "settings": "in vivo, po"}, "[4]": {"molecular_target": "cholera toxin CT (Vibrio cholerae, UniProt P01556)", "sequence (P01556 whole entry, looked up)": "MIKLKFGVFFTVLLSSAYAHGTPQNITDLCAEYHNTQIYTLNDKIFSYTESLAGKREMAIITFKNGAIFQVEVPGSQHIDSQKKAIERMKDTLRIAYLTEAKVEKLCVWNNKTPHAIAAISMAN", "format": "cell-based"}, "[5]": {"molecular_target": "cholera toxin B-subunits (Vibrio cholerae, UniProt P01556)", "format": "binding"}, "[6]": {"molecular_target": "enterotoxin CFA/I(LT-1) (Escherichia coli, UniProt D0Z6T1)", "sequence (D0Z6T1 whole entry, looked up)": "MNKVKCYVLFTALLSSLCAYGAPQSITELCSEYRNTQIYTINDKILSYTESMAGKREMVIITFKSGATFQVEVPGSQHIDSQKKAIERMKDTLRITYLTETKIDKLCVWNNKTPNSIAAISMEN", "format": "cell-based, E. coli"}, "[7]": {"tested_on": "CHO-Kl cells", "format": "cell-based, Chinese hamster"}, "[8]": {"tested_on": "enterotoxin LT-II", "parameters": "species or system E. coli", "settings": "in vivo, po"}},
  "note": "Values joined by “and” are separate entries in the source; they are usually repeats but may differ in a detail not shown here. Equal entries are not always repeated. Where two headings read alike, the source gives them in different places.",
  "data": [
    {"substance": "sialyllactose [SL]", "values": [
      {"measurement": "neutralization of the toxicity of LT-II against CHO-Kl cells (morphological alteration)", "setting": "[1]; samples 1 or 5 micrograms/chamber, LT-II culture supernatant", "result": "neutralized the toxicity"},
      {"measurement": "Rate of diarrhea", "setting": "[2]; oral 0.2 mg/day for 7 days", "result": 20, "unit": "%"},
      {"measurement": "Rate of diarrhea", "setting": "[2]; oral 0.5 mg/day for 7 days", "result": 20, "unit": "%"},
      {"measurement": "Rate of diarrhea", "setting": "[2]; oral 1.0 mg/day for 7 days", "result": 0, "unit": "%"},
      {"measurement": "Rate of diarrhea", "setting": "[3]", "result": "40% and 20%"},
      {"measurement": "neutralization of the toxicity of CT against CHO-Kl cells (morphological alteration)", "setting": "[4]; samples 1 or 5 micrograms/chamber, CT 10 micrograms/ml", "result": "neutralized the toxicity"},
      {"measurement": "interference with the binding of the cholera toxin B-subunits to GM1", "setting": "[5]; GM1-adsorbed plate, peroxidase-labeled CT-B, absorbance at 405 nm", "result": "interfered with the binding"},
      {"measurement": "neutralization of the toxicity of LT-I against CHO-Kl cells (morphological alteration)", "setting": "[6]; samples 1 or 5 micrograms/chamber, LT-I culture supernatant", "result": "neutralized the toxicity"}
    ]},
    {"substance": "kappa-casein glycomacropeptides [GMP]", "values": [
      {"measurement": "neutralization of the toxicity of LT-II against CHO-Kl cells (morphological alteration)", "setting": "[1]", "result": "neutralized the toxicity"},
      {"measurement": "neutralization of the toxicity of CT against CHO-Kl cells (morphological alteration)", "setting": "[4]", "result": "neutralized the toxicity"},
      {"measurement": "interference with the binding of the cholera toxin B-subunits to GM1", "setting": "[5]", "result": "interfered with the binding"},
      {"measurement": "neutralization of the toxicity of LT-I against CHO-Kl cells (morphological alteration)", "setting": "[6]", "result": "neutralized the toxicity"}
    ]},
    {"substance": "kappa-casein", "values": [
      {"measurement": "neutralization of the toxicity of LT-II against CHO-Kl cells (morphological alteration)", "setting": "[1]", "result": "neutralized the toxicity"},
      {"measurement": "neutralization of the toxicity of CT against CHO-Kl cells (morphological alteration)", "setting": "[4]", "result": "neutralized the toxicity"},
      {"measurement": "interference with the binding of the cholera toxin B-subunits to GM1", "setting": "[5]", "result": "interfered with the binding"},
      {"measurement": "neutralization of the toxicity of LT-I against CHO-Kl cells (morphological alteration)", "setting": "[6]", "result": "neutralized the toxicity"}
    ]},
    {"substance": "cholera toxin [CT]", "values": [
      {"measurement": "CHO-Kl cells morphologically altered", "setting": "[7]", "result": "at least 70%"}
    ]},
    {"substance": "ganglioside GD3", "values": [
      {"measurement": "Rate of diarrhea", "setting": "[8]", "result": "40% and 20%"}
    ]}
  ]
}
